Experimental findings from ChEMBL document CHEMBL1201862, “PubChem BioAssay data set” (2004) are described below.

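Tested at 5 concentrations; 48 h exposure; 96-well plates; endpoints linearly interpolated, else capped at highest concentration. GI50 marks 50% less growth.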 Active and inactive are the calls of the source. Cut-off read from the data, not from the text of the source: active = GI50 up to about 1.1 µM and inactive = higher. Where a SMILES comes first, the peptide text is derived from it. Square brackets hold non-standard residues; d marks the D form. Peptide text beside a SMILES is read from it.

Some test systems named below: K562; CAKI-1; MCF7; RPMI-8226; OVCAR-8; IGROV-1; OVCAR-5; RXF 393; NCI-H23; SR; TK-10; CCRF-CEM; OVCAR-3; HCT-116; KM12; SW-620; LOX IMVI; NCI-H522; EKVX; SF-268.
What all share (test): NCI-60 cell line screen, 48 h

For `O=Cc1cc([N+](=O)[O-])no1`, the GI50 was 4.85 µM (inactive) in the assay on K562; > 100 µM (inactive) in the assay with CAKI-1; 22 µM (inactive) with MCF7; 16.9 µM (inactive) with RPMI-8226; 41 µM (inactive) with OVCAR-8; 59 µM (inactive) in the assay on IGROV-1. Moreover, the GI50 in the assay on OVCAR-5 is 71.8 µM (inactive); with RXF 393 it was > 100 µM (inactive); in the assay on NCI-H23, 33.8 µM (inactive); with SR, 31.4 µM (inactive); with TK-10, > 100 µM (inactive); with CCRF-CEM, 16.6 µM (inactive). Further, the GI50 in the assay with OVCAR-3 is 40.6 µM (inactive); with HCT-116, 11 µM (inactive); in the assay on KM12 it was 18.7 µM (inactive); with SW-620, 14.8 µM (inactive); with LOX IMVI, 7.13 µM (inactive).
Take `CN(/N=N/c1[nH]cnc1C(N)=O)C1CCCCC1`: the GI50 in the assay on RPMI-8226 was 52.6 µM (inactive); in the assay on OVCAR-8, 36.9 µM (inactive); in the assay on NCI-H522, > 100 µM (inactive); in the assay with IGROV-1, > 100 µM (inactive); in the assay on OVCAR-5 it was > 100 µM (inactive); in the assay with RXF 393 it was > 100 µM (inactive). Further, the GI50 in the assay with NCI-H23 was > 100 µM (inactive); in the assay on SR, 30.7 µM (inactive); with TK-10, 40 µM (inactive); in the assay with CCRF-CEM, 55.2 µM (inactive); in the assay on OVCAR-3, 75.7 µM (inactive); with EKVX it was > 100 µM (inactive). In addition, the GI50 with SF-268 is > 100 µM (inactive); with HCT-116, 50.4 µM (inactive); in the assay on KM12, > 100 µM (inactive); in the assay with SW-620, 69 µM (inactive); in the assay with LOX IMVI, 42.2 µM (inactive).
In the case of `CC(C)C[C@H](NC(=O)[C@H](CC(C)C)NC(=O)[C@@H](Cc1c[nH]c2ccccc12)NC(=O)[C@H](Cc1ccccc1)NC(=O)[C@@H](Cc1c[nH]c2ccccc12)NC(=O)[C@H](CCC(N)=O)NC(=O)[C@@H](CCC(N)=O)NC(=O)[C@@H]1CCCN1C(=O)[C@@H](CCCCN)NC(=O)[C@H]1CCCN1C(=O)[C@H](N)CCCN=C(N)N)C(N)=O` (H-[dR][dP][dK]P[dQ]Q[dW]F[dW]LL-NH2), the GI50 in the assay on K562, with MCF7, in the assay with RPMI-8226, in the assay on OVCAR-8, with NCI-H522 and in the assay on IGROV-1 was > 100 µM (inactive) each time. Further, the GI50 is > 100 µM (inactive) in the assay with OVCAR-5; > 100 µM (inactive) in the assay on RXF 393; > 100 µM (inactive) in the assay on NCI-H23; > 100 µM (inactive) with CCRF-CEM; > 86.3 µM (inactive) with OVCAR-3; > 100 µM (inactive) in the assay with EKVX. Further, the GI50 in the assay on SF-268, in the assay on HCT-116, in the assay on KM12, in the assay with SW-620 and in the assay with LOX IMVI was > 100 µM (inactive) each time.
As to `O=C1CCc2cc3c(cc21)CC1(Cc2cc4c(cc2C1)CCCC4)C3`, the GI50 is 23.6 µM (inactive) in the assay on K562; 44.5 µM (inactive) in the assay on MCF7; > 100 µM (inactive) in the assay on RPMI-8226; > 100 µM (inactive) in the assay on OVCAR-8; 26 µM (inactive) in the assay with NCI-H522; 97.5 µM (inactive) in the assay on IGROV-1. Also, the GI50 was > 100 µM (inactive) with OVCAR-5; 16 µM (inactive) in the assay on RXF 393; > 100 µM (inactive) with NCI-H23; 5.52 µM (inactive) in the assay on SR; > 100 µM (inactive) in the assay on TK-10; 72.3 µM (inactive) in the assay on CCRF-CEM. In addition, the GI50 was 53.6 µM (inactive) in the assay on OVCAR-3; > 100 µM (inactive) in the assay with EKVX; > 100 µM (inactive) in the assay on SF-268; 37.2 µM (inactive) in the assay with HCT-116; 51.2 µM (inactive) in the assay with KM12; 29.1 µM (inactive) in the assay with SW-620. Moreover, in the assay with LOX IMVI, the GI50 is 58.5 µM (inactive).
As for `CCOC(=O)C(Cc1cn(C(C)=O)c2ccccc12)P(=O)(OCC)OCC` (stereo unspecified), the GI50 in the assay with K562, in the assay on CAKI-1, in the assay on RPMI-8226, in the assay on OVCAR-8, with NCI-H522 and in the assay on IGROV-1 was > 100 µM (inactive) in each case. Besides, the GI50 in the assay with OVCAR-5, with NCI-H23, in the assay on SR, with TK-10, with OVCAR-3 and with HCT-116 was > 100 µM (inactive) each time. In addition, the GI50 with SW-620 and with LOX IMVI was > 100 µM (inactive) in each case.
On to `Clc1ccc(/N=c2\oc3ccccc3cc2-c2nc3ccccc3[nH]2)c(Cl)c1`, for which the GI50 in the assay on K562 is > 100 µM (inactive); in the assay with CAKI-1 it was > 100 µM (inactive); with RPMI-8226, > 100 µM (inactive); in the assay with OVCAR-8, > 100 µM (inactive); in the assay with NCI-H522, 78.5 µM (inactive); in the assay on IGROV-1, > 100 µM (inactive). Also, the GI50 with OVCAR-5 is > 100 µM (inactive); in the assay with RXF 393, 18.6 µM (inactive); in the assay on NCI-H23 it was 78.5 µM (inactive); with SR, > 100 µM (inactive); in the assay with TK-10, 23.8 µM (inactive); in the assay on CCRF-CEM, > 100 µM (inactive). Further, the GI50 with OVCAR-3 is > 100 µM (inactive); in the assay on EKVX, 51.2 µM (inactive); in the assay on SF-268 it was 24.2 µM (inactive); in the assay on HCT-116, > 100 µM (inactive); in the assay on KM12, > 100 µM (inactive); in the assay on SW-620, > 100 µM (inactive). In addition, the GI50 in the assay on LOX IMVI is > 100 µM (inactive).
For `O=C(O)c1cc2c(ncc3c(=O)n(-c4ccccc4)[nH]c32)s1`, the GI50 with K562, with CAKI-1, with RPMI-8226, in the assay on OVCAR-8, in the assay with NCI-H522 and in the assay on IGROV-1 was > 100 µM (inactive) each time. Further, the GI50 in the assay with OVCAR-5, with RXF 393, with NCI-H23, in the assay with SR, in the assay with TK-10 and in the assay with CCRF-CEM was > 100 µM (inactive) each time. Moreover, the GI50 with OVCAR-3, with EKVX, in the assay on SF-268, with HCT-116, in the assay with KM12 and with SW-620 was > 100 µM (inactive) throughout. In addition, the GI50 in the assay with LOX IMVI was > 100 µM (inactive).
As to `O=C(CCN1CCOCC1)C(=Cc1ccccc1)C(=O)CCN1CCOCC1`, the GI50 in the assay with K562 was 0.836 µM (active); in the assay with CAKI-1, 3.99 µM (inactive); with MCF7 it was 3.19 µM (inactive); in the assay with RPMI-8226 it was 1.04 µM (active); in the assay on OVCAR-8 it was 2.91 µM (inactive); with NCI-H522 it was 1.5 µM (inactive). Moreover, the GI50 in the assay with IGROV-1 was 6.78 µM (inactive); with OVCAR-5, 19.2 µM (inactive); in the assay with RXF 393 it was 1.68 µM (inactive); in the assay on NCI-H23 it was 2.3 µM (inactive); in the assay on CCRF-CEM, 0.796 µM (active); in the assay on OVCAR-3, 3.97 µM (inactive). Further, the GI50 with EKVX is 2.21 µM (inactive); in the assay with SF-268 it was 6.85 µM (inactive); in the assay with HCT-116, 2.29 µM (inactive); with KM12, 5.01 µM (inactive); with SW-620 it was 1.92 µM (inactive); in the assay with LOX IMVI it was 1.93 µM (inactive).
`CN(C)c1cccc(OC(=O)NCCCl)c1`: the GI50 in the assay on K562, with CAKI-1, with MCF7, in the assay with OVCAR-8, in the assay with NCI-H522 and in the assay with IGROV-1 was > 100 µM (inactive) each time. Besides, the GI50 in the assay with OVCAR-5 was > 100 µM (inactive); in the assay with NCI-H23, > 100 µM (inactive); with CCRF-CEM, 68.2 µM (inactive); in the assay with OVCAR-3 it was > 100 µM (inactive); in the assay with EKVX it was > 100 µM (inactive); in the assay on SF-268, > 100 µM (inactive). In addition, the GI50 in the assay on HCT-116, in the assay on KM12, with SW-620 and with LOX IMVI was > 100 µM (inactive) throughout.
As to `CC1NC(=O)CNC(=O)CNC(=O)C(Cc2ccc(O)cc2)NC(=O)C(C(C)C)NC(=O)C(C)NC1=O` (stereo unspecified) (cyclo(GGAAVY); configuration not given here), the GI50 in the assay on CAKI-1, in the assay on MCF7, in the assay with RPMI-8226, in the assay with OVCAR-8, with IGROV-1 and in the assay with OVCAR-5 was > 100 µM (inactive) throughout. For the same compound, the GI50 in the assay with NCI-H23, in the assay with CCRF-CEM, with OVCAR-3, in the assay with EKVX, in the assay with SF-268 and in the assay with HCT-116 was > 100 µM (inactive) each time. For the same compound, the GI50 with KM12, with SW-620 and in the assay with LOX IMVI was > 100 µM (inactive) each time.
